Reference: publication PMC3197222 (Journal of the American Chemical Society, 2009)
Entries after “also recorded” stand apart in the source; their conditions may differ.

Tests used:
DNase [1] = conditions: selected with Lys18-wrapped phage library; ref [15]; cited from earlier work
DNase [2] = test: Phage-based ELISA of phage-displayed DNase ligands; assay type: binding; conditions: for binding to DNase, unwrapped phage-displayed ligand: absence of 1-ext wrapper, versus M13-KO7 phage; for binding affinity and specificity for DNase, phage-displayed: phage-based ELISA (Figure 5); for binding to DNase, wrapped phage-displayed ligand: wrapped with 1-ext (2.5 µM), versus M13-KO7 phage control
DNase [3] = test: SPR imaging of phage-displayed DNase-1 adsorption; assay type: binding; conditions: phage-displayed DNase-1, 2.5 nM phage wrapped in 2.5 µM polymer 1 in PBS (Figure S2)

In the case of EEWYCLRQGTFETLYCFW [DNase-L], the “DNase ligand (previous report)” value (DNase [1]) is given as “DNase ligand”.
In the case of EEWYCLRQGTFETLFF [DNase-2], the “binding to DNase, unwrapped phage-displayed ligand” value (DNase [2]) is reported as “stronger binding to DNase than the negative control M13-KO7 phage”, the “binding affinity and specificity for DNase, phage-displayed” value (DNase [2]) is reported as “moderate to high affinity binding and specificity for DNase” and the “binding to DNase, wrapped phage-displayed ligand” value (DNase [2]) is reported as “bound with higher affinity to DNase than the M13-KO7 phage control, with DNase-2 having much greater apparent affinity; also recorded: strong binding to DNase was retained”.
For RWCLSELSG [DNase-1], the “binding to DNase, unwrapped phage-displayed ligand” value (DNase [2]) was “stronger binding to DNase than the negative control M13-KO7 phage”, the “binding affinity and specificity for DNase, phage-displayed” value (DNase [2]) was “moderate to high affinity binding and specificity for DNase” and the “binding to DNase, wrapped phage-displayed ligand” value (DNase [2]) was “bound with higher affinity to DNase than the M13-KO7 phage control”. For the same sequence, the “SPR imaging binding to DNase” value (DNase [3]) was “binds well to the target DNase”.
